Read-outs that look alike come from different tables or passages of the source. Values belong to the molecule of their own block, whether it stands above or below them.
What was measured:
Type in all cases: cell-based
BCR-Abl = biological target: T1, BCR-Abl (Homo sapiens, UniProt P00519); experiment: Inhibition of cellular BCR-Abl dependent proliferation (32D-p210 cells)
T1 construct: expressed in transfected cells; host or cells: murine 32D hemopoietic progenitor cells (32D-p210); the other entry of the earlier key: BCR (P11274, Breakpoint cluster region protein)
T1 sequence (P00519 229-512 limits assumed): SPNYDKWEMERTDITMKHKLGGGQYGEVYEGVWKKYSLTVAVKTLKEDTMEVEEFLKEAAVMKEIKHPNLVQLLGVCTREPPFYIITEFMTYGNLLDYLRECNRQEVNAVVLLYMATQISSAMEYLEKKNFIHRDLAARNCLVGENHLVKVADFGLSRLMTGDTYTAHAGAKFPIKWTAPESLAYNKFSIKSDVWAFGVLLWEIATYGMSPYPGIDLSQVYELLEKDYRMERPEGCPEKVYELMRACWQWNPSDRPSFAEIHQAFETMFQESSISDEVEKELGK
Method: Inhibition of Cellular BCR-Abl Dependent Proliferation (High Throughput Method)
The murine cell line used is the 32D hemopoietic progenitor cell line transformed with BCR-Abl cDNA (32D-p210). These cells are maintained in RPMI/10% fetal calf serum (RPMI/FCS) supplemented with penicillin 50 μg/mL, streptomycin 50 μg/mL and L-glutamine […]. Untransformed 32D cells are similarly maintained with the addition of 15% WEHI conditioned medium as a source of IL3.
50 μl of a 32D or 32D-p210 cells suspension are plated in Greiner 384 well microplates (black) at a density of 5000 cells per well. 50 nl of test compound (1 mM in DMSO stock solution) is added to each well (ST1571 is included as a positive control). The cells are incubated for 72 hours at 37° C., 5% CO2. 10 μl of a 60% Alamar Blue solution (Tek diagnostics) is added to each well and the cells are incubated for an additional 24 hours. The fluorescence intensity (Excitation at 530 nm, Emission at 580 nm) is quantified using the Acquest™ system (Molecular Devices).
Inhibition of Cellular BCR-Abl Dependent Proliferation
32D-p210 cells are plated into 96 well TC plates at a density of 15,000 cells per well. 50 μL of two fold serial dilutions of the test compound (Cmax is 40 μM) are added to each well (ST1571 is included as a positive control). […]

FGFR3 = FGFR3 (Homo sapiens, UniProt P22607); experiment: IC50 for FGFR3 (method not described)
Chain of FGFR3 (P22607 23-806, species assumed): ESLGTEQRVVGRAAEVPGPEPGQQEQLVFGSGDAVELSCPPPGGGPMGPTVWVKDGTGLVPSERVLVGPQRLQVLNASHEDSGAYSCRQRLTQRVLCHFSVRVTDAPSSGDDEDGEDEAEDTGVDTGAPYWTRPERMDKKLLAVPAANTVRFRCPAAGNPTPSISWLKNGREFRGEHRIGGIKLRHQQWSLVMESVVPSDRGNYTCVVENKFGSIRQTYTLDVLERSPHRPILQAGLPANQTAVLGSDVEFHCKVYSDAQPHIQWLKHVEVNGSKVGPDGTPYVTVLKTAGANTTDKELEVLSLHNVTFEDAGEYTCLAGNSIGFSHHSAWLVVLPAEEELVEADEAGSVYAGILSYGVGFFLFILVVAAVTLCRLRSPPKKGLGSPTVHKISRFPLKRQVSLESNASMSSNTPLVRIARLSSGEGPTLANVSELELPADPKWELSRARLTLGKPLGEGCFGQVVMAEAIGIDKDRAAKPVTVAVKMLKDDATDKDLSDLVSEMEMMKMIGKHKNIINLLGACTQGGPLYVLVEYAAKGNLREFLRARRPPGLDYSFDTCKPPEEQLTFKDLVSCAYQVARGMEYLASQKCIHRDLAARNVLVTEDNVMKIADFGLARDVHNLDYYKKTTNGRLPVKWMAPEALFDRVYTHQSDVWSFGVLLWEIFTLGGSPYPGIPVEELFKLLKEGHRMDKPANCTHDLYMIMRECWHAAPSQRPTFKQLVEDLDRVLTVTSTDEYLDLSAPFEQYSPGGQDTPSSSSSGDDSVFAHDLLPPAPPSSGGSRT

FLT3-ITD = biological target: T2, FLT3-ITD (Homo sapiens, UniProt P36888, DUP592-605); experiment: Flt-3 inhibition, proliferation of Ba/F3-Flt3-ITD cells
T2 construct: expressed in transfected cells; host or cells: murine Ba/F3 cells, retroviral infection
T2 sequence (P36888 with tags, fused parts or gaps DUP592-605): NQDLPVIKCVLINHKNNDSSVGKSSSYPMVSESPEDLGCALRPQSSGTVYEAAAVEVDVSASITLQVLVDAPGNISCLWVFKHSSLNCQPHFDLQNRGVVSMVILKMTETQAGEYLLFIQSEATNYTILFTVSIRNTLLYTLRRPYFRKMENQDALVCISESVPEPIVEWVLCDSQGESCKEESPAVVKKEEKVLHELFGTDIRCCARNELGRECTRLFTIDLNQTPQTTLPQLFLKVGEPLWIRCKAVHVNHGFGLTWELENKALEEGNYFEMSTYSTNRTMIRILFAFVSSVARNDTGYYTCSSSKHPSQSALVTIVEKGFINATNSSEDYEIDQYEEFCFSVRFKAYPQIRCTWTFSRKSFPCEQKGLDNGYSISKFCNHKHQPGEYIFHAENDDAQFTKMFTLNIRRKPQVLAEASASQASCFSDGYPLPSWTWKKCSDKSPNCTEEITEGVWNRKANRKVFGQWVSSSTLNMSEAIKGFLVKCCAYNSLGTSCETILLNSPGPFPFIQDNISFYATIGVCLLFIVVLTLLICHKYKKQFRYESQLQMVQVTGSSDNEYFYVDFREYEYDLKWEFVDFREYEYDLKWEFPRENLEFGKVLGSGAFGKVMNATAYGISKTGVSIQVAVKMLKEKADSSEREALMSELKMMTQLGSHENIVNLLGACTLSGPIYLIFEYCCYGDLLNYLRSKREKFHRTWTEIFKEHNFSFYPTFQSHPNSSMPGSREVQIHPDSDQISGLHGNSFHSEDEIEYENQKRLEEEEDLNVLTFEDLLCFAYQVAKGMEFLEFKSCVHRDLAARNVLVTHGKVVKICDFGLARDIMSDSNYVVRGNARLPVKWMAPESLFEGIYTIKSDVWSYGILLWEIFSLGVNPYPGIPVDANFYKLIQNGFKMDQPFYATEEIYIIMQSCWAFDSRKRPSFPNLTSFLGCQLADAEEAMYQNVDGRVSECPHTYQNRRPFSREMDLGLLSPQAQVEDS
Text: Compounds that have differential activity (more than or equal to 10 fold difference in sensitivity between Flt3+cell lines and Flt3− cell lines are selected for further study.
The cell lines used for the initial screening are sub-lines of Ba/F3 cells that are engineered to over-express mutant or wild-type (non-mutated) Flt3 following infection with a retrovirus expressing appropriate Flt3 cDNAs. The parent cell line, Ba/F3 is dependent on interleukin-3 for proliferation, and when deprived of IL-3, the cells rapidly cease proliferation and die. The retrovirus expresses Flt3 from the retrovirual LTR and the neo gene from an IRES site. Ba/F3 cells are selected in G418 and analyzed for expression of Flt3 by fluorescence activated cell sorting (FACS). Cell lines with two different Flt3 mutations are used. One mutant expresses a Flt-3 that has a 14 amino acid duplication in the juxtamembrane domain encoded by exon 11, the specific duplication being . . . VDFREYEYDLKWEF . . . […]
Yo-Pro-1 iodide (Molecular Probes) is added to the cells at a final concentration of 2.5 μM in NaCl/Na-citrate buffer. The cells are incubated with Yo-Pro for 10 minutes at room temperature and then read on a fluorimeter for determination of cytotoxicity. Next, the cells are lysed with NP40/EDTA/EGTA buffer, incubated at room temperature for 90 minutes and read for the determination of proliferation. […]

PDGFR-beta = biological target: T3, PDGFR-beta (Homo sapiens, UniProt P09619); experiment: IC50 for BaF3/PDGFR-beta (method not described)
T3 construct: expressed in transfected cells; host or cells: BaF3
T3 sequence (P09619 33-1106, species assumed): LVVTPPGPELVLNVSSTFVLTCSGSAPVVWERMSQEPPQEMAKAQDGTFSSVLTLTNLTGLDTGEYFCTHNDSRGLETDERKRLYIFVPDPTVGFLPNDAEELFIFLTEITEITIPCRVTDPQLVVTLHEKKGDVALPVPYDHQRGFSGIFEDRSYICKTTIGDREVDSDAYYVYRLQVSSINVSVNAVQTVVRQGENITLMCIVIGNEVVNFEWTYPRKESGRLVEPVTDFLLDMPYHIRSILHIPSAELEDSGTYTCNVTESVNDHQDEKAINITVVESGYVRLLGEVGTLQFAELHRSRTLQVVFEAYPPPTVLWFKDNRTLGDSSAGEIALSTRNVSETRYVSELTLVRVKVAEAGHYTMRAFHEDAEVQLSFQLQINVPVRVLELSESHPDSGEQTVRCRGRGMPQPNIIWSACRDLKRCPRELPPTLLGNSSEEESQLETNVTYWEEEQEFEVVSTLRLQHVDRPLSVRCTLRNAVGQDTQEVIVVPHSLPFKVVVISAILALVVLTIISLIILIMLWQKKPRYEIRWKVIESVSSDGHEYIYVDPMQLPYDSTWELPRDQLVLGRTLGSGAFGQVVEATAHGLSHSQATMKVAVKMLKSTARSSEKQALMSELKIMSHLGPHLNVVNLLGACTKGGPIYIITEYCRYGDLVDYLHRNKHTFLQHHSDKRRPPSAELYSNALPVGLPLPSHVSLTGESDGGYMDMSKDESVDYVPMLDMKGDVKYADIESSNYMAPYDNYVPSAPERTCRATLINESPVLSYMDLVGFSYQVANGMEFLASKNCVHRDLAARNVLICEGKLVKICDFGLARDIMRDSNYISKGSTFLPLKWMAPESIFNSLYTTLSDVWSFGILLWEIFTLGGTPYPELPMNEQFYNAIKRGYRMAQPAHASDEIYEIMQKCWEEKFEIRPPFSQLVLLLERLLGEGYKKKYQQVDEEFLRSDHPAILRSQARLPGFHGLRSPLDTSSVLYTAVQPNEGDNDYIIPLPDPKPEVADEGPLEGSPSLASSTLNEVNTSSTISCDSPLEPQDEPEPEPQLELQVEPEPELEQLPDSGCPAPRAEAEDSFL

Tel-TRKC = Tel-TRKC (Homo sapiens, UniProt Q16288); experiment: IC50 for Tel-TRKC (method not described)
Chain of Tel-TRKC (Q16288 530-839): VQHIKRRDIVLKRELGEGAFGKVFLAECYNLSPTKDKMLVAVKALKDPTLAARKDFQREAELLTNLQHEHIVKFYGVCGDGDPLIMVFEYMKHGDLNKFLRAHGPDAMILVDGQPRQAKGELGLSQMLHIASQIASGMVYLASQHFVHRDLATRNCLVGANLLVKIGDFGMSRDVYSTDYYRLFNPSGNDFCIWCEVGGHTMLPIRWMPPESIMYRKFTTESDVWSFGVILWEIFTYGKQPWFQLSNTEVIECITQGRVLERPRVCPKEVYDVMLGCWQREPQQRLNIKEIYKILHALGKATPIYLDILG
Chain of Tel-TRKC (P41212 1-336 partner): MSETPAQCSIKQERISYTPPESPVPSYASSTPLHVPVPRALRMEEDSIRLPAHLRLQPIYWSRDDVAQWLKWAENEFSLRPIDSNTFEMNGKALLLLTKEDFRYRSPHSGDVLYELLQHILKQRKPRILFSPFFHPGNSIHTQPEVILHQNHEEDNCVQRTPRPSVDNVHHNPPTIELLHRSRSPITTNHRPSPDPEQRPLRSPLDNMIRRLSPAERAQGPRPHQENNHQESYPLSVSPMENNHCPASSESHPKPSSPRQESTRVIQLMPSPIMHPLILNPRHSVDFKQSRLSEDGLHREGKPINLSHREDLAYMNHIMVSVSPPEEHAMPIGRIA

JAK2 = JAK2 (Homo sapiens, UniProt O60674); experiment: IC50 for JAK2 (method not described)
Chain of JAK2 (O60674 whole entry, species assumed): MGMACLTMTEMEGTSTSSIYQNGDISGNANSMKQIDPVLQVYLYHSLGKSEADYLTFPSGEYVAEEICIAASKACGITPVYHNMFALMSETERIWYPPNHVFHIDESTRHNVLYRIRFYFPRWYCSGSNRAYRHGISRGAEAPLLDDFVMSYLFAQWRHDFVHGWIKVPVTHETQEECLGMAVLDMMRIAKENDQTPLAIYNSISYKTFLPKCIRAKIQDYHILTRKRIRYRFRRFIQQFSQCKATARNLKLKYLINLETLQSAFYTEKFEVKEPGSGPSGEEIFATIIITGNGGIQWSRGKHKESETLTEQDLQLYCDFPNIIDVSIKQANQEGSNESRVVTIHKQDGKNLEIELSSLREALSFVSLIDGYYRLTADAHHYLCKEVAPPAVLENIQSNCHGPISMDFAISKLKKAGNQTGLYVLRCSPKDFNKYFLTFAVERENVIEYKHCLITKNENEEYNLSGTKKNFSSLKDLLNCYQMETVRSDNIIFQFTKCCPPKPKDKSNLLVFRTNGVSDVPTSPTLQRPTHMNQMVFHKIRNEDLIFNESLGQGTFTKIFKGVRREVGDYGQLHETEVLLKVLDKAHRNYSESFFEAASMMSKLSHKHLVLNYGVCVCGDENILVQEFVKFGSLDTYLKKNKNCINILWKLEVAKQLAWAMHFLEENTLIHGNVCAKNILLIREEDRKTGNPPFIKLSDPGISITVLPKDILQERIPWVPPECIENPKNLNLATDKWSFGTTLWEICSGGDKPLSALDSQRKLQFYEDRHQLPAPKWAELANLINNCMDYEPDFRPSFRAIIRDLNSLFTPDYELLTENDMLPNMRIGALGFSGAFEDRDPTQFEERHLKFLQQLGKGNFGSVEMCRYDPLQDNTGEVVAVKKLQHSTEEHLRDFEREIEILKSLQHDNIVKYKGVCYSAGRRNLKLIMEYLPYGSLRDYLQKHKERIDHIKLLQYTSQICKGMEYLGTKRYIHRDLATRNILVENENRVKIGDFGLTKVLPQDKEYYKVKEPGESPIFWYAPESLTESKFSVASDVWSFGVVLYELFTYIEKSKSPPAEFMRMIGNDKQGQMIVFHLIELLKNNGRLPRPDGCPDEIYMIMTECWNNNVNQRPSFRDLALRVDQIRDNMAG

Structure (SMILES): COc1cc(Nc2ncc3c(n2)N(c2ccccn2)CC3)cc(OC)c1OC [example 61, (7-Pyridin-2-yl-6,7-dihydro-5H-pyrrolo[2,3-d]pyrimidin-2-yl)-(3,4,5-trimethoxy-phenyl)-amine]
IC50 (FGFR3): 284 nM

Structure (SMILES): COc1cc(Nc2ncc3ccn(-c4cccc(CCC#N)c4)c3n2)cc(OC)c1OC [example 85, 3-{3-[2-(3,4,5-Trimethoxy-phenylamino)-pyrrolo[2,3-d]pyrimidin-7-yl]-phenyl}-propionitrile]
IC50 (FLT3-ITD): 16 nM

Structure (SMILES): COc1cc(Nc2ncc3ccn(-c4cccc(CC#N)c4)c3n2)cc(OC)c1OC [example 104, {3-[2-(3,4,5-Trimethoxy-phenylamino)-pyrrolo[2,3-d]pyrimidin-7-yl]-phenyl}-acetonitrile]
IC50 (PDGFR-beta; read-out: IC50 for PDGFR-beta): 33 nM
IC50 (Tel-TRKC): 479 nM
IC50 (FLT3-ITD): 29 nM
IC50 (FGFR3): 282 nM
IC50 (JAK2): 342 nM

Results, then the molecule that gave them:

IC50 (BCR-Abl): 408 nM
Structure (SMILES): COc1ccc(Nc2ncc3ccn(-c4ccnc(Cl)c4)c3n2)c(C)c1 [example 47, [7-(2-Chloro-pyridin-4-yl)-7H-pyrrolo[2,3-d]pyrimidin-2-yl]-(4-methoxy-2-methyl-phenyl)-amine]

IC50 (PDGFR-beta; BaF3/PDGFR-beta, read-out: IC50 for BaF3/PDGFR-beta): 29 nM
Structure (SMILES): COc1cc(Nc2ncc3ccn(-c4cccc(Cc5nnnn5C)c4)c3n2)cc(OC)c1OC [example 120, {7-[3-(1-Methyl-1H-tetrazol-5-ylmethyl)-phenyl]-7H-pyrrolo[2,3-d]pyrimidin-2-yl}-(3,4,5-trimethoxy-phenyl)-amine]

From patent publication US7968557B2, “Substituted pyrrolo[2,3-2]pyrimidines as protein kinase inhibitors” (Novartis AG, priority 2004, dated 2011)
